Measured values from US8211929B2, “Pyrimidine derivatives as kinase modulators and method of use” (Exelixis, Inc., priority 2004, dated 2012).

Tests used:
[1] = target: T1, (Homo sapiens, UniProt P08069); assay: IGF1R kinase assay (LCCA), IGF 0P; format: biochemical; details: IGF1R kinase LCCA assay
T1 construct: human IGF1R kinase domain residues M954-C1367; made in house; host or cells: baculovirus expression (insect cells)
Description: (§1) Kinase activity and compound inhibition are investigated using one or more of the three assay formats described below. The ATP concentrations for each assay are selected to be close to the Michaelis-Menten constant (KM) for each individual kinase. Dose-response experiments are performed at 10 different inhibitor concentrations in a 384-well plate format. […] Y=Min+(Max−Min)/(1+(X/IC50)^H) Equation (2)
(§2) IGF1R kinase biochemical activity was assessed using a Luciferase-Coupled Chemiluminescent Kinase assay (LCCA) format. Kinase activity was measured as the percent ATP remaining following the kinase reaction. Remaining ATP was detected by luciferase-luciferin-coupled chemiluminescence. Specifically, the reaction was initiated by mixing test compounds, 3 μM ATP, 4 μM poly EY peptide and 4 nM IGF1R (baculovirus expressed human IGF1R kinase domain residues M954-C1367) in a 20 uL assay buffer (20 mM Tris-HCL pH7.5, 10 mM MgCl2, 0.02% Triton X-100, 1 mM DTT, 2 mM MnCl2). The mixture is incubated at ambient temperature for 2 hours after which 20 uL luciferase-luciferin mix is added and the chemiluminescent signal read using a Wallac Victor^2 reader.

IGF 3P = target: T2, IGF 3P (Homo sapiens, UniProt P08069); assay: IGF1R kinase assay (LCCA), IGF 3P; format: biochemical; details: IGF1R kinase LCCA assay
T2 construct: human IGF1R kinase domain residues M954-C1367; made in house; host or cells: baculovirus expression (insect cells)
T2 sequence (P08069 954-1367): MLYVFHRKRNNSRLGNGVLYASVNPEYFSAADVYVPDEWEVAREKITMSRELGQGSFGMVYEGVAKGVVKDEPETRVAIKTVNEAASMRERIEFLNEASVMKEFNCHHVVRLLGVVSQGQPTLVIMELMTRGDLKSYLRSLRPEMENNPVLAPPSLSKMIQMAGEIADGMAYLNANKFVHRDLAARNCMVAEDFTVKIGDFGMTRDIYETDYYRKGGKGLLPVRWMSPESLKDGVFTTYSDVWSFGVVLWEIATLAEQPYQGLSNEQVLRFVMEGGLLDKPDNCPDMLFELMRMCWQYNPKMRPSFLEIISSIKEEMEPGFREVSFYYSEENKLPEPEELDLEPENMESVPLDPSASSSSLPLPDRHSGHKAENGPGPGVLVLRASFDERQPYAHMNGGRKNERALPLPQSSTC
Description: as §1, §2

T1 sequence (P08069 954-1367): as above

IC50 [1] [µM]	IC50 (IGF 3P) [µM]	SMILES
0.5 to 5	> 5	Brc1cnc(NCc2cnn(-c3ccccc3)n2)nc1Nc1cc(C2CC2)n[nH]1 [Example 266]
> 5	> 5	Clc1ccccc1Nc1ncc(Br)c(Nc2n[nH]c3ccccc23)n1 [Example 267]
> 5	> 5	Cc1cc(Nc2cc(C3CC3)n[nH]2)nc(Nc2ccc(N3CCOCC3)cc2)n1 [Example 268]
> 5	> 5	Brc1cnc(Nc2cccc(OCc3ccccc3)c2)nc1Nc1cc(C2CC2)n[nH]1 [Example 269]
0.5 to 5	> 5	Cc1cc(C)cc(Nc2nc(C)cc(Nc3cc(C4CC4)n[nH]3)n2)c1 [Example 270]
> 5	> 5	Brc1cnc(NCc2cc(-c3ccccc3)cs2)nc1Nc1cc(C2CC2)n[nH]1 [Example 271]
> 5	> 5	Clc1ccccc1CCNc1ncc(Br)c(Nc2cc(C3CC3)n[nH]2)n1 [Example 272]
0.5 to 5	> 5	Cc1cc(Nc2cc(C3CC3)n[nH]2)nc(Nc2cc(Cl)cc(Cl)c2)n1 [Example 274]
0.5 to 5	> 5	Clc1ccc(-c2cc(CNc3ncc(Br)c(Nc4cc(C5CC5)[nH]n4)n3)on2)cc1 [Example 275]
0.5 to 5	> 5	O=C(Nc1ccccc1)c1nc(Nc2ccccc2Cl)nc(Nc2cc(C3CC3)n[nH]2)c1[N+](=O)[O-] [Example 276]
> 5	> 5	COc1ccc(-c2cc(CNc3ncc(Br)c(Nc4cc(C5CC5)[nH]n4)n3)on2)cc1 [Example 277]
> 5	> 5	O=C(Nc1ccc(N2CCOCC2)cc1)c1nc(Nc2ccccc2Cl)nc(Nc2cc(C3CC3)n[nH]2)c1[N+](=O)[O-] [Example 278]
> 5	> 5	O=C(Nc1ncc(Br)c(Nc2cc(C3CC3)[nH]n2)n1)c1ccccc1Cl [Example 279]
> 5	> 5	CC(=O)Nc1cnc(Nc2ccccc2Cl)nc1Nc1cc(C2CC2)n[nH]1 [Example 280]
> 5	> 5	c1ccc(CN2CCc3c(nc(Nc4ccc(N5CCOCC5)cc4)nc3Nc3cc(C4CC4)[nH]n3)C2)cc1 [Example 281]
> 5	> 5	c1cc(N2CCOCC2)ccc1Nc1nc2c(c(Nc3cc(C4CC4)[nH]n3)n1)CCNC2 [Example 282]
> 5	> 5	c1ccc(-c2cc(CNc3nc4c(c(Nc5cc(C6CC6)[nH]n5)n3)CCNC4)on2)cc1 [Example 283]
> 5	> 5	Nc1nc(C2CC2)nn1-c1nc(Nc2ccc(N3CCOCC3)cc2)ncc1Br [Example 284]
> 5	> 5	Nc1ncnn1-c1nc(Nc2ccc(N3CCOCC3)cc2)ncc1Br [Example 285]
> 5	> 5	Clc1ccccc1Nc1ncc(Br)c(Nc2cc(C3CC3)on2)n1 [Example 286]
> 5	> 5	Nc1nc(Nc2ccc(N3CCOCC3)cc2)ncc1Br [Example 287]
> 5	> 5	FC(F)(F)c1ccc(-c2ncc(CNc3ncc(Br)c(Nc4cc(C5CC5)[nH]n4)n3)s2)cc1 [Example 288]

IC50 [1] [µM]	IC50 (IGF 3P) [µM]	SMILES
> 5	> 5	Clc1ccc(-c2ncc(CNc3ncc(Br)c(Nc4cc(C5CC5)[nH]n4)n3)s2)cc1 [Example 289]
> 5	> 5	Clc1cccc(-c2ncc(CNc3ncc(Br)c(Nc4cc(C5CC5)[nH]n4)n3)s2)c1 [Example 290]
> 5	> 5	Nc1cccc(Nc2nc(NCc3cc(-c4ccccc4)no3)ncc2Br)n1 [Example 291]
> 5	> 5	Brc1cnc(NCc2cc(-c3ccccc3)no2)nc1Nc1ccccc1 [Example 292]
> 5	> 5	CCCCNc1cc(C)nc(NCc2cc(-c3ccccc3)no2)n1 [Example 293]
> 5	> 5	CCCCNc1cc(C)nc(Nc2ccc(N3CCOCC3)cc2)n1 [Example 294]
> 5	> 5	Cc1cc(Nc2cc(C)on2)nc(Nc2ccc(N3CCOCC3)cc2)n1 [Example 295]
> 5	> 5	Cc1cc(Nc2nc(NCc3cc(-c4ccccc4)no3)ncc2Br)no1 [Example 296]
> 5	> 5	Cc1cc(Nc2ccc3ccccc3c2)nc(Nc2ccc(N3CCOCC3)cc2)n1 [Example 297]
> 5	> 5	Cc1cc(NCc2ccccc2)nc(NCc2cc(-c3ccccc3)no2)n1 [Example 298]
> 5	> 5	Cc1cc(Nc2ccc3ccccc3c2)nc(NCc2cc(-c3ccccc3)no2)n1 [Example 299]
> 5	> 5	Cc1cc(Nc2cc(C3CC3)n[nH]2)nc(Nc2cc(C(F)(F)F)cc(C(F)(F)F)c2)n1 [Example 300]
> 5	> 5	Cc1cc(Nc2cc(C3CC3)n[nH]2)nc(Nc2cc(Br)cc(C(F)(F)F)c2)n1 [Example 301]
> 5	> 5	COc1cc(Nc2nc(C)cc(Nc3cc(C4CC4)n[nH]3)n2)cc(C(F)(F)F)c1 [Example 302]
> 5	> 5	Clc1cc(Cl)cc(Nc2ncc(Br)c(Nc3cc(C4CC4)n[nH]3)n2)c1 [Example 303]
> 5	> 5	FC(F)(F)c1cc(Nc2ncc(Br)c(Nc3cc(C4CC4)n[nH]3)n2)cc(C(F)(F)F)c1 [Example 304]
> 5	> 5	FC(F)(F)c1cc(Br)cc(Nc2ncc(Br)c(Nc3cc(C4CC4)n[nH]3)n2)c1 [Example 305]
> 5	> 5	Cc1cc(Nc2n[nH]cc2C#N)nc(NCc2cc(-c3ccccc3)no2)n1 [Example 306]
> 5	> 5	Cc1cc(Nc2cc(C)on2)nc(NCc2cc(-c3ccccc3)no2)n1 [Example 307]
> 5	> 5	Cc1cc(N2CCN(C)CC2)nc(N2CCN(C)CC2)n1 [Example 308]
> 5	> 5	Cc1cc(Nc2ccccc2)nc(Nc2ccc(CCC(=O)NCCN3CCCC3)cc2)n1 [Example 309]
> 5	> 5	CCN(CC)CCNC(=O)CCc1ccc(Nc2nc(C)cc(Nc3ccccc3)n2)cc1 [Example 310]

IC50 [1] [µM]	IC50 (IGF 3P) [µM]	SMILES
> 5	> 5	c1cc(Nc2ccon2)nc(Nc2ccc(N3CCOCC3)cc2)n1 [Example 311]
> 5	> 5	Fc1cc(F)cc(Nc2ncc(Br)c(Nc3cc(C4CC4)n[nH]3)n2)c1 [Example 313]
> 5	> 5	Nc1ncc(Br)c(Nc2cc(C3CC3)[nH]n2)n1 [Example 314]
> 5	> 5	CC(C)(C)OC(=O)N1CCC(CNc2ncc(Br)c(Nc3cc(C4CC4)n[nH]3)n2)CC1 [Example 315]
> 5	> 5	Brc1cnc(Nc2ccncc2)nc1Nc1cc(C2CC2)[nH]n1 [Example 316]
> 5	> 5	Brc1cnc(Nc2cc(-c3ccccc3)n[nH]2)nc1Nc1cc(-c2ccccc2)n[nH]1 [Example 319]
> 5	> 5	Brc1cnc(Nc2ccc(OCc3ccccc3)cc2)nc1Nc1cc(C2CC2)n[nH]1 [Example 320]
> 5	> 5	Brc1cnc(Nc2ccc(Oc3ccccc3)cc2)nc1Nc1cc(C2CC2)[nH]n1 [Example 321]
> 5	> 5	Brc1cnc(Nc2ccc(-c3ccccc3)cc2)nc1Nc1cc(C2CC2)[nH]n1 [Example 322]
> 5	> 5	Brc1cnc(NCc2cc(-c3ccccc3)no2)nc1Nc1cc(-c2ccccc2)n[nH]1 [Example 323]
> 5	> 5	Clc1ccc(-c2ccc(CNc3ncc(Br)c(Nc4cc(C5CC5)n[nH]4)n3)s2)cc1 [Example 324]
> 5	> 5	Clc1cc(Nc2ncc(Br)c(Nc3cc(C4CC4)n[nH]3)n2)cc(Cl)c1Cl [Example 325]
> 5	> 5	CC(C)(C)OC(=O)N1CCC(Nc2ncc(Br)c(Nc3cc(C4CC4)[nH]n3)n2)CC1 [Example 326]
> 5	> 5	Nc1ccc(Nc2nc(Nc3cc(C4CC4)n[nH]3)ncc2Br)cc1 [Example 327]
> 5	> 5	Brc1cnc(NCCC(c2ccccc2)c2ccccc2)nc1Nc1cc(C2CC2)[nH]n1 [Example 328]
> 5	> 5	Brc1cnc(NCC(c2ccccc2)c2ccccc2)nc1Nc1cc(C2CC2)[nH]n1 [Example 329]
> 5	> 5	Brc1cnc(Nc2cccc(Oc3ccccc3)c2)nc1Nc1cc(C2CC2)n[nH]1 [Example 330]
> 5	> 5	O=[N+]([O-])c1cnc(Nc2ccc(Cl)cc2Cl)nc1Nc1cc(C2CC2)n[nH]1 [Example 331]
> 5	> 5	NC(=O)c1c[nH]nc1Nc1nc(Nc2ccccc2Cl)ncc1Br [Example 332]
> 5	> 5	Brc1cnc(NC(Cc2ccccc2)c2ccccc2)nc1Nc1cc(C2CC2)[nH]n1 (centres unmarked) [Example 333]
